Laboratory results from article PMC9120017, “Inhibition mechanism of the chloride channel TMEM16A by the pore blocker 1PBC” (Nature Communications, 2022).
Like-named read-outs stand apart in the source and are kept apart here.

Molecular target: T1, mouse TMEM16A mutant V543A (Mus musculus, UniProt Q8BHY3, V543A)
T1 construct: expressed in transfected cells; host or cells: HEK293T
T1 sequence (Q8BHY3 1-960 V543A): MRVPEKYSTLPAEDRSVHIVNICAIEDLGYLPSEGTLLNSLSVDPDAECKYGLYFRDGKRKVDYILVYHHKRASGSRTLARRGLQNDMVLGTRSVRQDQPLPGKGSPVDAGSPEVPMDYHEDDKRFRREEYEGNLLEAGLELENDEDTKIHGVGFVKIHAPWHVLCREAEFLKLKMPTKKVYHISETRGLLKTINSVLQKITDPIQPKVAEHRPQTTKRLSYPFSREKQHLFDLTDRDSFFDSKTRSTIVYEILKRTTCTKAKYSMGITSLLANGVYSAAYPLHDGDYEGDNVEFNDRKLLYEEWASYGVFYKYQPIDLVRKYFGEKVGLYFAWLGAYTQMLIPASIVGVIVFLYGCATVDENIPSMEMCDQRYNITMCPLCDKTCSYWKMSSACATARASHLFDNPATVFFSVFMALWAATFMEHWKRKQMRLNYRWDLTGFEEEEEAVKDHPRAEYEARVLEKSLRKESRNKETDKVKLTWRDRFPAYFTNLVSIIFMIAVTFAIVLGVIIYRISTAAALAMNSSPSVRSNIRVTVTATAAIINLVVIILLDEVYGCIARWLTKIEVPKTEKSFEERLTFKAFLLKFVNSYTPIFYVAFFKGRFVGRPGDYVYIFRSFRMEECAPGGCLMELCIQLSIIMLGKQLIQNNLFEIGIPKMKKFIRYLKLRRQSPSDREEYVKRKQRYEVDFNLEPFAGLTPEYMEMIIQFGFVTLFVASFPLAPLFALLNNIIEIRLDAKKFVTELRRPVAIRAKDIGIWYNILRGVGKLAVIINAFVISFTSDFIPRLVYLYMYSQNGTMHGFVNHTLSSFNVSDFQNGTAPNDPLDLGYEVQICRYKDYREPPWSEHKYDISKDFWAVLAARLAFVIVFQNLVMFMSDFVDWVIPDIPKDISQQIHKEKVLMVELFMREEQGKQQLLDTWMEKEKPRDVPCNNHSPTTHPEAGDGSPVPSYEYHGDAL
Test: Inside-out patch recording of 1PBC block, mutant V543A
Assay type: cell-based
Details: for remaining activity at 100 µM: 100 µM 1PBC
Experimental: HEK293T cells (ATCC CRL-1573) were maintained in Dulbecco’s modified Eagle’s medium (DMEM; Sigma-Aldrich) supplemented with 10 U ml^−1 penicillin, 0.1 mg ml^−1 streptomycin (Sigma-Aldrich), 2 mM L-glutamine (Sigma-Aldrich), and 10% FBS (Sigma-Aldrich) in a humidified atmosphere containing 5% CO2 at 37 °C. HEK293S GnTI^− cells (ATCC CRL-3022) were maintained in HyClone HyCell TransFx-H medium (GE Healthcare) supplemented with 10 U ml^−1 penicillin, 0.1 mg ml^−1 streptomycin, 4 mM L-glutamine, 0.15% poloxamer 188 (Sigma-Aldrich), and 1% FBS in an atmosphere containing 5% CO2 at 185 rpm at 37 °C. The ac splice variant of mouse TMEM16A (UniProt ID: Q8BHY3), mouse TMEM16B (UniProt ID: Q8CFW1), or mouse TMEM16F (UniProt ID: Q6P9J9) bearing a 3C cleavage site, a Venus YFP, a Myc tag, and a Streptavidin-binding peptide (SBP) downstream of the open reading frame in a modified pcDNA3.1 vector (Invitrogen) were used as described previously[21],[31]. Mutations were introduced using a modified QuikChange method[58] and were verified by sequencing.
HEK293T cells were transfected with 3–4 μg DNA per 6 cm Petri dish using the calcium phosphate co-precipitation method and were used within 24–96 h after transfection. Recordings were performed on inside-out patches excised from HEK293T cells expressing the construct of interest. Patch pipettes were pulled from borosilicate glass capillaries (O.D. 1.5 mm, I.D. 0.86 mm, Sutter Instrument) and were fire-polished with a microforge (Narishige) before use. Pipette resistance was typically 3–8 MΩ when filled with the recording solutions detailed below. Seal resistance was typically 4 GΩ or higher. Voltage-clamp recordings were made using Axopatch 200B, Digidata 1550, and Clampex 10.7 (Molecular Devices). Analog signals were filtered with the in-built 4-pole Bessel filter at 10 kHz and were digitized at 20 kHz. Solution exchange was achieved using a gravity-fed system through a theta glass pipette mounted on an ultra-fast piezo-driven stepper (Siskiyou). […] All recordings were performed at 20 °C.
A symmetrical ionic condition was used throughout. Stock solution with Ca^2+-EGTA contained 150 mM NaCl, 5.99 mM Ca(OH)2, 5 mM EGTA, and 10 mM HEPES at pH 7.40. Stock solution with EGTA contained 150 mM NaCl, 5 mM EGTA, and 10 mM HEPES at pH 7.40. Free Ca^2+ concentrations were adjusted by mixing the stock solutions at the required ratios calculated using the WEBMAXC program (http://web.stanford.edu/~cpatton/webmaxcS.htm). Patch pipettes were filled with the stock solution with Ca^2+-EGTA, which has a free Ca^2+ concentration of 1 mM. 1PBC (ChemBridge) stock was reconstituted in anhydrous DMSO (Sigma-Aldrich) at 100 mM and stored at −20 °C. Working solutions with 1PBC were prepared by serial dilution. Unless otherwise stated, experiments were performed at a saturating Ca^2+ concentration as shown in Supplementary Table 1 and the primary data were corrected for current rundown as described previously[21],[25].
Concentration-response relations, obtained from the ratio of the I-V plots before and after the application of the blocker, were fitted to the Hill equation,1 I/Imax=1/1+IC50/[blocker]^h where I/Imax is the normalized current responses, IC50 defines the concentration at which inhibition is at its half-maximum, and h is the Hill coefficient.

IC50 (0 mV, 15 µM Ca2+): 11.2 µM
remaining activity at 3 µM (3 µM 1PBC, +80 mV, saturating Ca2+ (15 µM), read-out: I/Imax): 76.2%
remaining activity at 3 µM (3 µM 1PBC, -80 mV, saturating Ca2+ (15 µM), read-out: I/Imax): 86.2%
remaining activity at 10 µM (10 µM 1PBC, +80 mV, saturating Ca2+ (15 µM), read-out: I/Imax): 42.8%
remaining activity at 10 µM (10 µM 1PBC, -80 mV, saturating Ca2+ (15 µM), read-out: I/Imax): 67.5%
remaining activity at 30 µM (30 µM 1PBC, +80 mV, saturating Ca2+ (15 µM), read-out: I/Imax): 20.1%
remaining activity at 30 µM (30 µM 1PBC, -80 mV, saturating Ca2+ (15 µM), read-out: I/Imax): 43.8%
remaining activity at 100 µM (+80 mV, saturating Ca2+ (15 µM), read-out: I/Imax): 6.35%
remaining activity at 100 µM (-80 mV, saturating Ca2+ (15 µM), read-out: I/Imax): 18.7%
remaining activity at 3 µM (1PBC 3, 0 mV, read-out: fraction of unblocked current): 79.2%
remaining activity at 3 µM (1PBC 3, 20 mV, read-out: fraction of unblocked current): 77.2%
remaining activity at 3 µM (1PBC 3, 40 mV, read-out: fraction of unblocked current): 76.3%
remaining activity at 3 µM (1PBC 3, 60 mV, read-out: fraction of unblocked current): 75.5%
remaining activity at 3 µM (1PBC 3, 80 mV, read-out: fraction of unblocked current): 76.2%
remaining activity at 3 µM (1PBC 3, 100 mV, read-out: fraction of unblocked current): 78.6%
remaining activity at 3 µM (1PBC 3, 120 mV, read-out: fraction of unblocked current): 80.1%
remaining activity at 3 µM (1PBC 3, 140 mV, read-out: fraction of unblocked current): 83.1%
remaining activity at 3 µM (1PBC 3, -20 mV, read-out: fraction of unblocked current): 81.1%
remaining activity at 3 µM (1PBC 3, -40 mV, read-out: fraction of unblocked current): 83.5%
remaining activity at 3 µM (1PBC 3, -60 mV, read-out: fraction of unblocked current): 84.9%
remaining activity at 3 µM (1PBC 3, -80 mV, read-out: fraction of unblocked current): 86.2%
remaining activity at 3 µM (1PBC 3, -100 mV, read-out: fraction of unblocked current): 87.3%
remaining activity at 3 µM (1PBC 3, -120 mV, read-out: fraction of unblocked current): 88.4%
remaining activity at 3 µM (1PBC 3, -140 mV, read-out: fraction of unblocked current): 89.4%
remaining activity at 10 µM (1PBC 10, 0 mV, read-out: fraction of unblocked current): 52.5%
remaining activity at 10 µM (1PBC 10, 20 mV, read-out: fraction of unblocked current): 48.7%
remaining activity at 10 µM (1PBC 10, 40 mV, read-out: fraction of unblocked current): 45.6%
remaining activity at 10 µM (1PBC 10, 60 mV, read-out: fraction of unblocked current): 43.7%
remaining activity at 10 µM (1PBC 10, 80 mV, read-out: fraction of unblocked current): 42.8%
remaining activity at 10 µM (1PBC 10, 100 mV, read-out: fraction of unblocked current): 43.3%
remaining activity at 10 µM (1PBC 10, 120 mV, read-out: fraction of unblocked current): 44.7%
remaining activity at 10 µM (1PBC 10, 140 mV, read-out: fraction of unblocked current): 45.8%
remaining activity at 10 µM (1PBC 10, -20 mV, read-out: fraction of unblocked current): 56.4%
remaining activity at 10 µM (1PBC 10, -40 mV, read-out: fraction of unblocked current): 60.6%
remaining activity at 10 µM (1PBC 10, -60 mV, read-out: fraction of unblocked current): 64.3%
remaining activity at 10 µM (1PBC 10, -80 mV, read-out: fraction of unblocked current): 67.5%
remaining activity at 10 µM (1PBC 10, -100 mV, read-out: fraction of unblocked current): 70.7%
remaining activity at 10 µM (1PBC 10, -120 mV, read-out: fraction of unblocked current): 73.2%
remaining activity at 10 µM (1PBC 10, -140 mV, read-out: fraction of unblocked current): 75.5%
remaining activity at 30 µM (1PBC 30, 0 mV, read-out: fraction of unblocked current): 27.4%
remaining activity at 30 µM (1PBC 30, 20 mV, read-out: fraction of unblocked current): 23.9%
remaining activity at 30 µM (1PBC 30, 40 mV, read-out: fraction of unblocked current): 21.7%
remaining activity at 30 µM (1PBC 30, 60 mV, read-out: fraction of unblocked current): 20.8%
remaining activity at 30 µM (1PBC 30, 80 mV, read-out: fraction of unblocked current): 20.1%
remaining activity at 30 µM (1PBC 30, 100 mV, read-out: fraction of unblocked current): 20.1%
remaining activity at 30 µM (1PBC 30, 120 mV, read-out: fraction of unblocked current): 21.6%
remaining activity at 30 µM (1PBC 30, 140 mV, read-out: fraction of unblocked current): 22.4%
remaining activity at 30 µM (1PBC 30, -20 mV, read-out: fraction of unblocked current): 30.9%
remaining activity at 30 µM (1PBC 30, -40 mV, read-out: fraction of unblocked current): 34.9%
Structure (SMILES): N#Cc1c(C(F)(F)F)cc(O)n2c1nc1ccccc12 [1PBC]
